{"source": "ChEMBL document CHEMBL5625206", "about": "“Design, synthesis, and evaluation of novel pleuromutilin aryl acrylate derivatives as promising broad-spectrum antibiotics especially for combatting multi-drug resistant gram-negative bacteria” (Eur J Med Chem, 2023)", "key": {"Staphylococcus aureus [1]": {"system": "Staphylococcus aureus", "assay": "Bactericidal activity against methicillin-resistant Staphylococcus aureus ATCC 33591 at MIC incubated for 24 hrs by time kill assay relative to control", "assay_type": "functional"}, "[2]": {"assay": "Toxicity in fasted male Sprague-Dawley rat assessed as body weight at 224 mg/kg, IG measured on same day (reference value: 212.7 +/- 13.2 g)", "assay_type": "organism-based", "details": "in vivo, po"}, "[3]": {"assay": "Toxicity in fasted female Sprague-Dawley rat assessed as body weight at 100 mg/kg, IG measured after 7 days (reference value: 188.2 +/- 9.2 g)", "assay_type": "organism-based", "details": "in vivo, po, 168 h, time 7 day"}, "Staphylococcus aureus [4]": {"system": "Staphylococcus aureus", "assay": "Induction of cell damage in methicillin-resistant Staphylococcus aureus ATCC 33591 assessed as fold increase in extracellular ATP concentration at MIC incubated for 30 mins by fluorescence based analysis relative to control", "assay_type": "functional", "details": "0.5 h"}, "[5]": {"assay": "Toxicity in fasted Sprague-Dawley rat assessed as mortality rate at 331 mg/kg, IG measured for 14 days", "assay_type": "organism-based", "details": "in vivo, po, time 14 day"}, "Staphylococcus aureus [6]": {"system": "Staphylococcus aureus", "assay": "Antibacterial activity against Staphylococcus aureus ATCC 29213 assessed as bacterial growth inhibition incubated for 24 hrs by CLSI based broth microdilution method", "assay_type": "functional"}, "Staphylococcus aureus [7]": {"system": "Staphylococcus aureus", "assay": "Inhibition of biofilm formation of methicillin-resistant Staphylococcus aureus ATCC 33591 at MIC incubated for 24 hrs by crystal violet staining based analysis relative to control", "assay_type": "functional"}, "Staphylococcus aureus [8]": {"system": "Staphylococcus aureus", "assay": "Induction of cell damage in methicillin-resistant Staphylococcus aureus ATCC 33591 assessed as decrease in intracellular ATP concentration at 2 times MIC incubated for 30 mins by fluorescence based analysis relative to control", "assay_type": "functional", "set-up": "scale not given: the % may be the effect or the level left", "details": "0.5 h"}, "[9]": {"assay": "Tmax in fasted Sprague-Dawley rat at 1 mg/kg, iv by LC-MS/MS analysis", "assay_type": "ADME, organism-based", "details": "in vivo"}, "Staphylococcus aureus [10]": {"system": "Staphylococcus aureus", "assay": "Induction of extracellular electrical conductivity in methicillin-resistant Staphylococcus aureus ATCC 33591 at 2 times MIC incubated for 8 hrs relative to control"}, "[11]": {"assay": "Toxicity in fasted female Sprague-Dawley rat assessed as animal growth rate at 100 mg/kg, IG measured for 14 days (reference value: 29.85 +/- 4.97 g)", "assay_type": "organism-based", "details": "in vivo, po, 336 h, time 14 day"}, "Escherichia coli [12]": {"system": "Escherichia coli", "assay": "Inhibition of biofilm formation of Escherichia coli ATCC 25922 incubated for 24 hrs by crystal violet staining based analysis", "assay_type": "functional, organism-based"}, "[13]": {"assay": "Toxicity in fasted female Sprague-Dawley rat assessed as relative spleen weight ratio at 500 mg/kg, IG measured for 14 days (reference value: 0.223 +/- 0.019)", "assay_type": "organism-based", "details": "in vivo, po, 336 h, time 14 day"}, "[14]": {"assay": "Toxicity in fasted male Sprague-Dawley rat assessed as body weight at 224 mg/kg, IG measured after 14 days (reference value: 311.2 +/- 13.6 g)", "assay_type": "organism-based", "details": "in vivo, po, 336 h, time 14 day"}, "[15]": {"assay": "Toxicity in fasted female Sprague-Dawley rat assessed as body weight at 500 mg/kg, IG measured after 14 days (reference value: 214.3 +/- 9.8 g)", "assay_type": "organism-based", "details": "in vivo, po, 336 h, time 14 day"}, "[16]": {"assay": "Toxicity in fasted female Sprague-Dawley rat assessed as relative liver weight ratio at 100 mg/kg, IG measured for 14 days (reference value: 3.199 +/- 0.062)", "assay_type": "organism-based", "details": "in vivo, po, 336 h, time 14 day"}, "[17]": {"assay": "Toxicity in fasted male Sprague-Dawley rat assessed as relative kidney weight ratio at 100 mg/kg, IG measured for 14 days (reference value: 0.820 +/- 0.072)", "assay_type": "organism-based", "details": "in vivo, po, 336 h, time 14 day"}, "[18]": {"assay": "Toxicity in fasted female Sprague-Dawley rat assessed as body weight at 148 mg/kg, IG measured on same day (reference value: 165.2 +/- 8.1 g)", "assay_type": "organism-based", "details": "in vivo, po"}, "Escherichia coli [19]": {"system": "Escherichia coli", "assay": "Induction of cell damage in Escherichia coli ATCC 25922 assessed as fold increase in extracellular ATP concentration at MIC incubated for 30 mins by fluorescence based analysis relative to control", "assay_type": "functional", "details": "0.5 h"}, "[20]": {"assay": "Toxicity in fasted male Sprague-Dawley rat assessed as animal growth rate at 500 mg/kg, IG measured for 14 days (reference value: 46.53 +/- 3.19 g)", "assay_type": "organism-based", "details": "in vivo, po, 336 h, time 14 day"}, "Acinetobacter baumannii": {"system": "Acinetobacter baumannii", "assay": "Antibacterial activity against Acinetobacter baumannii ATCC 19606 assessed as bacterial growth inhibition incubated for 24 hrs by CLSI based broth microdilution method", "assay_type": "functional"}, "[21]": {"assay": "Toxicity in fasted female Sprague-Dawley rat assessed as relative ovary weight ratio at 148 mg/kg, IG measured for 14 days (reference value: 0.061 +/- 0.010)", "assay_type": "organism-based", "details": "in vivo, po, 336 h, time 14 day"}, "Staphylococcus aureus [22]": {"system": "Staphylococcus aureus", "assay": "Bactericidal activity against methicillin-resistant Staphylococcus aureus ATCC 33591 at 2 to 8 times MIC incubated for 8 to 24 hrs by time kill assay relative to control", "assay_type": "functional", "details": "time 8-24 hrs"}, "[23]": {"assay": "Toxicity in fasted female Sprague-Dawley rat assessed as body weight at 331 mg/kg, IG measured on same day (reference value: 165.2 +/- 8.1 g)", "assay_type": "organism-based", "details": "in vivo, po"}, "[24]": {"assay": "Cytotoxicity against HEK293 cells incubated for 24 hrs by CCK8 assay", "assay_type": "toxicity, cell-based", "details": "human"}, "[25]": {"assay": "Toxicity in fasted male Sprague-Dawley rat assessed as relative heart weight ratio at 148 mg/kg, IG measured for 14 days (reference value: 0.396 +/- 0.043)", "assay_type": "organism-based", "details": "in vivo, po, 336 h, time 14 day"}, "Staphylococcus aureus [26]": {"system": "Staphylococcus aureus", "assay": "Antibacterial activity against methicillin-resistant Staphylococcus aureus 171 clinical isolate assessed as bacterial growth inhibition incubated for 24 hrs by CLSI based broth microdilution method", "assay_type": "functional"}, "[27]": {"assay": "Toxicity in fasted female Sprague-Dawley rat assessed as body weight at 148 mg/kg, IG measured after 14 days (reference value: 214.3 +/- 9.8 g)", "assay_type": "organism-based", "details": "in vivo, po, 336 h, time 14 day"}, "[28]": {"assay": "Cmax in fasted Sprague-Dawley rat at 1 mg/kg, iv by LC-MS/MS analysis", "assay_type": "ADME, organism-based", "details": "in vivo"}, "Staphylococcus aureus [29]": {"system": "Staphylococcus aureus", "assay": "Antibacterial activity against methicillin-resistant Staphylococcus aureus ATCC 33591 assessed as bacterial growth inhibition incubated for 24 hrs by CLSI based broth microdilution method", "assay_type": "functional"}, "Staphylococcus aureus [30]": {"system": "Staphylococcus aureus", "assay": "Induction of cell damage in methicillin-resistant Staphylococcus aureus ATCC 33591 assessed as decrease in intracellular ATP concentration at MIC incubated for 30 mins by fluorescence based analysis relative to control", "assay_type": "functional", "set-up": "scale not given: the % may be the effect or the level left", "details": "0.5 h"}, "[31]": {"assay": "Toxicity in fasted female Sprague-Dawley rat assessed as relative liver weight ratio at 331 mg/kg, IG measured for 14 days (reference value: 3.199 +/- 0.062)", "assay_type": "organism-based", "details": "in vivo, po, 336 h, time 14 day"}, "Staphylococcus aureus [32]": {"system": "Staphylococcus aureus", "assay": "Depolarization of cell membrane in methicillin-resistant Staphylococcus aureus ATCC 33591 by DiBAC4(3) probe based analysis", "assay_type": "functional, organism-based"}, "Escherichia coli [33]": {"system": "Escherichia coli", "assay": "Disruption of cell membrane integrity in Escherichia coli ATCC 25922 assessed as wrinkled cell surface at MIC incubated for 4 hrs by FESEM analysis", "assay_type": "functional, organism-based"}, "Escherichia coli [34]": {"system": "Escherichia coli", "assay": "Bactericidal activity against Escherichia coli ATCC 25922 incubated for 24 hrs by time kill assay", "assay_type": "functional, organism-based"}, "[35]": {"assay": "Toxicity in fasted male Sprague-Dawley rat assessed as body weight at 500 mg/kg, IG measured on same day (reference value: 212.7 +/- 13.2 g)", "assay_type": "organism-based", "details": "in vivo, po"}, "[36]": {"assay": "Toxicity in fasted male Sprague-Dawley rat assessed as animal growth rate at 100 mg/kg, IG measured for 14 days (reference value: 46.53 +/- 3.19 g)", "assay_type": "organism-based", "details": "in vivo, po, 336 h, time 14 day"}, "[37]": {"assay": "Toxicity in fasted female Sprague-Dawley rat assessed as relative kidney weight ratio at 500 mg/kg, IG measured for 14 days (reference value: 0.802 +/- 0.031)", "assay_type": "organism-based", "details": "in vivo, po, 336 h, time 14 day"}}, "note": "The source made the active and inactive calls. No cut-off for these calls is given here.", "data": [{"smiles": "C=C[C@]1(C)C[C@@H](OC(=O)COC(=O)/C=C/c2ccc(N(C)C)cc2)[C@]2(C)[C@H](C)CC[C@]3(CCC(=O)[C@H]32)[C@@H](C)[C@@H]1O", "values": [{"measurement": "Activity", "setting": "Staphylococcus aureus [1]", "value": 48.55, "unit": "%"}, {"measurement": "Activity", "setting": "[2]", "value": 210.1, "unit": "g"}, {"measurement": "Activity", "setting": "[3]", "value": 188.2, "unit": "g"}, {"measurement": "fold change (FC)", "setting": "Staphylococcus aureus [4]", "value": 4.01}, {"measurement": "mortality at 336 h", "setting": "[5]", "value": 0, "unit": "%"}, {"measurement": "MIC", "setting": "Staphylococcus aureus [6]", "value": 2, "unit": "µg/mL"}, {"measurement": "inhibition (INH)", "setting": "Staphylococcus aureus [7]", "value": 56.51, "unit": "%"}, {"measurement": "Activity", "setting": "Staphylococcus aureus [8]", "value": 86.52, "unit": "%"}, {"measurement": "Tmax", "setting": "[9]", "value": 4.98, "unit": "min"}, {"measurement": "Activity", "setting": "Staphylococcus aureus [10]", "value": 25.63, "unit": "%"}, {"measurement": "Activity", "setting": "[11]", "value": 31.22, "unit": "%"}, {"measurement": "inhibition", "setting": "Escherichia coli [12]", "value": "Dose-Dependent Effect"}, {"measurement": "Ratio", "setting": "[13]", "value": 0.23}, {"measurement": "Activity", "setting": "[14]", "value": 304.9, "unit": "g"}, {"measurement": "Activity", "setting": "[15]", "value": 207.7, "unit": "g"}, {"measurement": "Ratio", "setting": "[16]", "value": 3.195}, {"measurement": "Ratio", "setting": "[17]", "value": 0.822}, {"measurement": "Activity", "setting": "[18]", "value": 159.8, "unit": "g"}, {"measurement": "fold change (FC)", "setting": "Escherichia coli [19]", "value": 6.12}, {"measurement": "Activity", "setting": "[20]", "value": 43.65, "unit": "%"}, {"measurement": "MIC", "setting": "Acinetobacter baumannii", "value": 32, "unit": "µg/mL"}, {"measurement": "Ratio", "setting": "[21]", "value": 0.066}, {"measurement": "Activity", "setting": "Staphylococcus aureus [22]", "value": 100, "unit": "%"}, {"measurement": "Activity", "setting": "[23]", "value": 171.3, "unit": "g"}, {"measurement": "CC50 at 24 h", "setting": "[24]", "value": 34.6, "unit": "µM"}, {"measurement": "Ratio", "setting": "[25]", "value": 0.379}, {"measurement": "MIC", "setting": "Staphylococcus aureus [26]", "value": 8, "unit": "µg/mL"}, {"measurement": "Activity", "setting": "[27]", "value": 210.5, "unit": "g"}, {"measurement": "Cmax", "setting": "[28]", "value": 9570, "unit": "ng/mL"}, {"measurement": "MIC", "setting": "Staphylococcus aureus [29]", "value": 2, "unit": "µg/mL"}, {"measurement": "Activity", "setting": "Staphylococcus aureus [30]", "value": 57.98, "unit": "%"}, {"measurement": "Ratio", "setting": "[31]", "value": 3.171}, {"measurement": "Activity", "setting": "Staphylococcus aureus [32]", "value": "Dose-Dependent Effect"}, {"measurement": "Activity", "setting": "Escherichia coli [33]", "value": "Active"}, {"measurement": "Activity", "setting": "Escherichia coli [34]", "value": "Dose-Dependent Effect"}, {"measurement": "Activity", "setting": "[35]", "value": 208, "unit": "g"}, {"measurement": "Activity", "setting": "[36]", "value": 46.18, "unit": "%"}, {"measurement": "Ratio", "setting": "[37]", "value": 0.798}]}]}
